{"source": "patent US8119380B2", "about": "“Methods and materials for making and using transgenic dicamba-degrading organisms” (Board of Regents of University of Nebraska, priority 1997, dated 2012)", "molecules": {"B1": {"name": "component I: oxygenase component of dicamba O-demethylase (protein)", "chain": "MTFVRNAWYVAALPEELSEKPLGRTILDTPLALYRQPDGVVAALLDICPHRFAPLSDGILVNGHLQCPYHGLEFDGGGQCVHNPHGNGARPASLNVRSFPVVERDALIWIWPGDPALADPGAIPDFGCRVDPAYRTVGGYGHVDCNYKLLVDNLMDLGHAQYVHRANAQTDAFDRLEREVIVGDGEIQALMKIPGGTPSVLMAKFLRGANTPVDAWNDIRWNKVSAMLNFIAVAPEGTPKEQSIHSRGTHILTPETEASCHYFFGSSRNFGIDDPEMDGVLRSWQAQALVKEDKVVVEAIERRRAYVEANGIRPAMLSCDEAAVRVSREIEKLEQLEAA", "modifications": "Pseudomonas maltophilia DI-6", "notes": "oxygenase component of dicamba O-demethylase"}}, "key": {"[1]": {"molecular_target": "T1, dicamba O-demethylase (Stenotrophomonas maltophilia, UniProt Q5S3I3)", "T1 construct": "partially purified O-demethylase enzyme [the 40%-70% (w/v) (NH4)2SO4 fraction from a cleared cell lysate]; endogenous in cells; host or cells: Pseudomonas maltophilia strain DI-6 (cleared cell lysate, ammonium sulfate cut, or Phenyl-/Q-Sepharose fractions)", "T1 sequence (Q5S3I3 2-339)": "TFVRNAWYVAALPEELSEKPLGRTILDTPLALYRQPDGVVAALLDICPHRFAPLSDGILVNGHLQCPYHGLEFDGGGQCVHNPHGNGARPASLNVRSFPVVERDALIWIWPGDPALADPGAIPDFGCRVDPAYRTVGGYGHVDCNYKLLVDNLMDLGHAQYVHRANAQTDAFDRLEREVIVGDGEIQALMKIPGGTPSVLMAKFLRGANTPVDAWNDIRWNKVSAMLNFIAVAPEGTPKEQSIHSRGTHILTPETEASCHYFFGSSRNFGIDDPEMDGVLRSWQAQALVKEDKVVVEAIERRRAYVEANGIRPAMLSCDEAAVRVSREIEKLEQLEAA", "assay_type": "biochemical", "settings": "mixed with excess amounts of components I and III; 55 μg partially purified component II or 100 μg highly purified Clostridium ferredoxin", "protocol": "(§1) Enzyme assays. […] At specific times, the reactions were stopped by adding 50 μl of 5% (vol/vol) H2SO4.\n(§2) The solvent system for running the TLC was chloroform-ethanol-acetic acid (85:10:5 [vol/vol/vol]). The resolved reaction products were visualized and quantified by exposing the TLC plate to a phosphor screen for 24 hours and then scanning the screen in a PhosphorImager SF (Molecular Dynamics, Sunnyvale, Calif.). […] Specific activities were based on the total protein concentration of the assay mixture.\n(§3) When a single component was assayed, the other two components were provided in excess.\n(§4) Component and cofactor requirements. […] Samples were applied to a Q-Sepharose (Fast Flow) fast protein liquid chromatography column (Pharmacia) in buffer A and eluted with a 100-ml linear gradient of 0 to 0.6 M KCl (for the oxygenase component) or 0 to 1.0 M KCl (for the ferredoxin and reductase components) in 1.5-ml fractions. Appropriate pooled fractions from separate columns for oxygenase purification (fractions 29 to 37), for ferredoxin purification (fractions 30 to 37), or for reductase purification (fractions 26 to 38) were used for the determination of component and cofactor requirements.\n(§5) The three components were assayed for O-demethylase activity in various combinations to determine component requirements.\n(§6) The amounts of partially purified protein (provided in an optimized ratio) in the reaction mixtures were 85 μg of oxygenase, 55 μg of ferredoxin and 50 μg of reductase. The concentration of cofactors used in the reaction mixtures were 0.5 mM NADH, 0.2 mM FAD, 0.5 mM FeSO4, 10 mM MgCl2, 0.5 mM NADPH, and 0.2 mM FMN."}, "[2]": {"system": "COc1c(Cl)ccc(Cl)c1C(=O)O", "test": "cells, lysate or membranes named", "settings": "other: partially purified O-demethylase (40%-70% ammonium sulfate fraction), pH 7.0, 30° C., Michaelis-Menten/Lineweaver-Burk fit, duplicate experiments"}, "[3]": {"system": "dicamba O-demethylase", "assay_type": "biochemical", "settings": "mixture of three partially purified components, 30 minutes at 30° C.; 0.5 mM NADH, 0.5 mM NADPH, 10 mM MgCl2, 0.5 mM FeSO4, 0.2 mM FAD, 0.2 mM FMN", "protocol": "as §1, §2, §3, §4, §5, §6"}, "[4]": {"system": "plants", "settings": "cited from earlier work"}, "[5]": {"molecular_target": "dicamba O-demethylase (Stenotrophomonas maltophilia, UniProt Q5S3I3)", "settings": "cleared cell lysate, less than 1 ppm oxygen, 30° C., within 1 hour", "procedure": "Oxygen requirement. […] The procedures for displacement of oxygen from the reaction mixture were performed at 4° C. Reaction mixtures lacking enzyme were placed in a vial and sealed with a rubber stopper. For displacement of oxygen, the vial was evacuated twice by vacuum and flushed each time with nitrogen. After a third evacuation, the vial was flushed with 90% nitrogen plus 10% hydrogen. The enzyme solution was likewise purged of oxygen (with care taken not to bubble the enzyme solution). Both the reaction mixtures and enzyme solutions were transferred into an anaerobic chamber (95% N2-5% H2 atmosphere). Two hundred forty microliters of cleared cell lysate was injected through the rubber stopper with a microsyringe and gently mixed with 960 μl of oxygen-free reaction mixture. Reactions were carried out at 30° C."}, "[6]": {"test": "Reductase assays (reduction of cytochrome c or DCIP in the presence of NADH)", "assay_type": "biochemical", "protocol": "The reaction contained 0.5 mM NADH, 0.2 mM FAD (flavin adenine dinucleotide), 50 μM DCIP, 20 mM Tris buffer (pH 8.0), and 10-100 μl of enzyme sample in a total volume of 1 ml. The change in absorbance at 600 nm with time was measured at room temperature. Specific activity was calculated using an extinction coefficient at 600 nm of 21.0 mM^−1cm^−1 for reduced DCIP. Specific activity was expressed as nmol DCIP reduced min^−1 mg^−1 of protein.\nIn addition, an in situ DCIP assay was used to detect and locate the reductase activity in protein preparations separated on isoelectric focusing (IEF) gels. After electrophoresis of the proteins on an IEF gel, lanes sliced from the gel were washed with 20 ml of cold 20 mM Tris-HCl buffer (pH 8.0). Low melting agarose was dissolved by heating in 10 ml of 20 mM Tris-HCl buffer (pH 8.0) at a final concentration of 1.5% (w/v). When the agarose cooled to near room temperature, it was supplemented with 0.2 mM FAD, 50 μM DCIP, and 0.5 mM NADH. The assay mixture was poured onto a glass plate and allowed to solidify. The gel piece was placed on top of the solidified reaction mixture and allowed to set at room temperature for 15 minutes. If the gel slice contained a protein with reductase activity, a colorless band of reduced DCIP was generated in the blue background of DCIP."}}, "note": "Values joined by “and” are separate entries in the source; they are usually repeats but may differ in a detail not shown here. Equal values may be shown once.", "data": [{"molecule": "ferredoxin from Clostridium: highly purified ferredoxin from Clostridium pasteurianum (AYKIADSCVSCGACASECPVNAISQGDSIFVIDADTCIDCGNCANVCPVGAPVQE; UniProt P00195 2-56, looked up)", "values": [{"measurement": "rate of conversion of dicamba to 3,6-DCSA (ferredoxin component)", "setting": "[1]", "result": 0.6, "unit": "nmol/min/mg"}]}, {"molecule": "dicamba O-demethylase (Stenotrophomonas maltophilia)", "values": [{"measurement": "Km", "setting": "[2]", "result": "9.9 ± 3.9 µM and 10 µM"}]}, {"molecule": "NC(=O)C1=CN([C@@H]2O[C@H](COP(=O)(O)OP(=O)(O)OC[C@H]3O[C@@H](n4cnc5c(N)ncnc54)[C@H](O)[C@@H]3O)[C@@H](O)[C@H]2O)C=CC1", "note": "[NADH, beta-nicotinamide adenine dinucleotide, reduced form]", "values": [{"measurement": "cofactor effect on dicamba O-demethylase activity", "setting": "[3]", "result": "markedly more effective than NADPH"}]}, {"molecule": "O=C(O)c1c(Cl)ccc(Cl)c1O", "note": "[3,6-DCSA, 3,6-dichlorosalicylic acid]", "values": [{"measurement": "herbicidal activity", "setting": "[4]", "result": "no herbicidal activity"}]}, {"molecule": "COc1c(Cl)ccc(Cl)c1C(=O)O", "note": "[dicamba, 3,6-dichloro-2-methoxybenzoic acid]", "values": [{"measurement": "conversion of dicamba to 3,6-DCSA under anaerobic conditions", "setting": "[5]", "result": "virtually no conversion"}]}, {"molecule": "Cc1cc2nc3c(=O)[nH]c(=O)nc-3n(C[C@H](O)[C@H](O)[C@H](O)COP(=O)(O)OP(=O)(O)OC[C@H]3O[C@@H](n4cnc5c(N)ncnc54)[C@H](O)[C@@H]3O)c2cc1C", "note": "[FAD, flavin adenine dinucleotide]", "values": [{"measurement": "cofactor effect on dicamba O-demethylase activity", "setting": "[3]", "result": "little or no stimulation"}]}, {"molecule": "NC(=O)C1=CN([C@@H]2O[C@H](COP(=O)(O)OP(=O)(O)OC[C@H]3O[C@@H](n4cnc5c(N)ncnc54)[C@H](OP(=O)(O)O)[C@@H]3O)[C@@H](O)[C@H]2O)C=CC1", "note": "[NADPH]", "values": [{"measurement": "cofactor effect on dicamba O-demethylase activity", "setting": "[3]", "result": "supported enzyme activity"}]}, {"molecule": "Cc1cc2nc3c(=O)[nH]c(=O)nc-3n(C[C@H](O)[C@H](O)[C@H](O)COP(=O)(O)O)c2cc1C", "note": "[FMN, flavin mononucleotide]", "values": [{"measurement": "cofactor effect on dicamba O-demethylase activity", "setting": "[3]", "result": "little or no stimulation"}]}, {"molecule": "B1", "values": [{"measurement": "reductase activity with cytochrome c or DCPIP in the presence of NADH", "setting": "[6]", "result": "Neither component I nor component II showed activity"}]}]}
